Key:
[1] = Effect of drugs on exosome number and miR-451 enrichment in exosomes; assay type: cell-based; details: treatment of exosome-producing cells
Procedure: A variety of cellular factors which may affect nucleic acid construct packaging in exosomes using methods as described herein were studied. Specifically, effects of over-expression of mutant Ras, mutant Myc, wild-type Ago2, and siRNA depletion of Translin were studied. […] The effect of several drugs was also tested, such as mTOR inhibitors and lysosomal/autophagy inhibitors which are clinically used. […] Lysosomal/autophagy inhibitors tested include Bafilomycin A1, concanamycin, and NAADP-AM.

MEF = assay: Exosomal enrichment of endogenous miR-451, RT-qPCR in exosomes vs exosome-producing cells; assay type: cell-based, mouse
Procedure: (§1) Firstly, enrichment of endogenously expressed miR-451 in exosomes was compared to other endogenously expressed microRNAs (miR-16, let-7a).
(§2) Exosomes were enriched by differential centrifugation as previously described (Thery, 2006, Curr Protoc Cell Biol, Chapter 3, Unit 3 22). Briefly, MEF or MDA-MB-231 cells were cultured in media containing FBS depleted of exosomes by centrifugation at 100 000 g for 16 h (Thery, 2006, Curr Protoc Cell Biol, Chapter 3, Unit 3 22). To purify exosomes supernatant from cell cultures was centrifuged at 400 g (7 min), 2000 g (10 min) and 10 000 g (30 min, SW32 rotor). At each step the supernatant was recovered. After centrifugation at 100 000 g (1 h 10 min, SW32 rotor) the supernatant was removed and the pellet was resuspended. The pellet was washed in PBS by a final centrifugation at 100 000 g (20 min, TLA100.3 rotor). The exosome-enriched pellet was re-suspended in PBS for further analyses.
RT-qPCR was performed with the MiScript II Reverse Transcriptase system (Qiagen) and GoTaq® qPCR Master Mix (Promega A6002) using primers allowing amplification of the DNA produced in the reverse transcriptase step. […]
RT-qPCR was performed with (Promega A6002) or Quantitect qPCR master mix (Qiagen) using primers allowing amplification of the DNA produced in the reverse transcriptase step using the following primers mir-451: […] […]

BV2 = assay: as above; assay type: cell-based, mouse; details: exosome-depleted or serum-free media
Procedure: as §1
(§3) RT-qPCR was performed with the MiScript II Reverse Transcriptase system (Qiagen) and GoTaq® qPCR Master Mix (Promega A6002) using primers allowing amplification of the DNA produced in the reverse transcriptase step. Results were normalized to the ubiquitous miRNA let-7a and miR-16.
(§4) RT-qPCR was performed with (Promega A6002) or Quantitect qPCR master mix (Qiagen) using primers allowing amplification of the DNA produced in the reverse transcriptase step using the following primers mir-451: […] (SEQ ID NO: 14), let-7a: […] (SEQ ID NO: 15), mir-16: […] (SEQ ID NO: 16).

C8D1A = assay: as above; assay type: cell-based, mouse; details: exosome-depleted or serum-free media
Procedure: as §1, §3, §4

C8D30 = assay: as above; assay type: cell-based, mouse; details: exosome-depleted or serum-free media
Procedure: as §1, §3, §4

C8S = assay: as above; assay type: cell-based, mouse; details: exosome-depleted or serum-free media
Procedure: as §1, §3, §4

JAWSII = assay: as above; assay type: cell-based, mouse; details: exosome-depleted or serum-free media
Procedure: as §1, §3, §4

MN1 = assay: as above; assay type: cell-based, mouse; details: exosome-depleted or serum-free media
Procedure: as §1, §3, §4

Macrophage = assay: as above; assay type: cell-based, mouse; details: exosome-depleted or serum-free media
Procedure: as §1, §3, §4

N2A = assay: as above; assay type: cell-based, mouse; details: exosome-depleted or serum-free media
Procedure: as §1, §3, §4

NSC34 = assay: as above; assay type: cell-based, mouse; details: exosome-depleted or serum-free media
Procedure: as §1, §3, §4

MDA-MB-231 = assay: Exosomal enrichment of endogenous miRNAs, RT-qPCR in exosomes vs exosome-producing cells; assay type: cell-based, human
Description: Exosomes from breast epithelial cell line (MDA-MB-231) or mouse embryonic fibroblasts (MEF) were purified and multiple techniques were used to confirm the identity and purity of exosome preparations (see FIG. 1A-D). Dynamic light scattering and Nanosight particle tracking was used to ensure that exosomes purified were highly pure populations of particles with diameter of 100 nm, as expected for exosomes. […] RNA was isolated from these exosomes and the cells that produced them, and RT-qPCR was used to characterize the relative abundance of miRNAs.
as §1, §2, §3

MSC Line = assay: Exosomal enrichment of endogenous miR-451, RT-qPCR in exosomes vs exosome-producing cells; assay type: cell-based; details: exosome-depleted or serum-free media
Procedure: as §1, §3, §4

ESC = assay: as above; assay type: cell-based, human
Procedure: as §1, §3, §4

Primary MSC = assay: as above; assay type: cell-based, human; details: exosome-depleted or serum-free media
Procedure: as §1, §3, §4

[2] = system: exosomes from multiple cell types and sources; details: plasma, serum, mast cells, glioblastoma, B cells, cardiac progenitor cells, MSC; cited from earlier work
[3] = system: mouse embryonic fibroblast cells; assay: Exosomal enrichment of synthetic RNA constructs mimicking pre-miR-451 processing stages (RT-qPCR); assay type: cell-based; details: synthetic RNA transfected, FIG. 9(E)
Procedure: Synthetic RNA constructs mimicking WT pre-miR-451 at various processing stages were tested for exosomal enrichment. Constructs were transfected into cells, and exosome enrichment was measured by RT-qPCR after exosome purification by differential centrifugation. miR-451 derived mature siRNA was normalized to levels of let-7a and miR-16 in exosomes vs. cells. Constructs tested include WT pre-mIR-451 construct following Drosha processing (A), an Ago2-cleaved version of the construct (B), and a mature 22 nt miR-451 (post exonuclease activity, having a 5′ targeting portion including a portion of the loop region) (C). For comparison, a standard 21 nt dsRNA siRNA with 3′ overhangs (D) was also tested. Exosomal enrichment results are shown in (E);
Constructs were accordingly designed which mimic WT pre-miR-451 at various processing stages, and tested for exosomal enrichment. Constructs tested are graphically depicted in FIG. 9. […]
RNAs corresponding to 42 nt pre-miR-451 with an inserted GFP siRNA, or the same construct up to the Ago2 cleavage site, or the fully mature form of miR-451 produced GFP siRNA (single-stranded 22 nt RNA), or double-stranded GFP siRNA with 2 nt 3′ overhangs were synthesized by IDT. […] Two days later exosomes were purified and levels of mature GFP siRNA in exosomes was quantified by RT-qPCR.

MEF cells = assay: Exosomal enrichment of miRNA expressed from transfected pre-miR-451 structural mimic plasmids (RT-qPCR); assay type: cell-based, mouse; details: for Effect of pre-miR-451 backbone on levels of inserted miRNA in cells: MEF cells transfected with plasmids, FIG. 4
Procedure: (§5) (C) The ratio of endogenous miRNAs (let-7a, miR-106, miR-155) was measured in exosomes and exosome-producing cells (MEF, mouse embryonic fibroblasts) by RT-qPCR. y-axis is log 10. miR-451 is not endogenously expressed in these cells.
MEF cells were transfected with pre-miR-451 expressing plasmids (“technology”) containing miR-199, miR-155 or miR-106, and exosomes were purified and RT-qPCR was performed on exosomes and cells.
(§6) Plasmids expressing pre-miR-451, or pre-miR-451 structural mimics including the sequences of other miRNA, were transfected into the two cell types. Expressing miR-106 or miR-155 in the pre-miR-451 structural mimic caused them to be enriched up to 39-fold in exosomes produced by either MEF or breast cancer cells (see FIG. 3B,D). […] In MEF cells, endogenous miR-451 was undetectable in either cells or exosomes (see FIG. 3C).
(§7) Cells were transfected with plasmids using Lipofectamine 2000 according to the manufacturer's instructions. After four hours cells were washed in PBS and incubated with DMEM containing 10% FBS depleted of exosomes by ultracentrifugation according to Thery et al. (2006). After 24 h media was harvested and exosomes were purified by differential ultracentrifugation. RNA was purified from exosomes and exosome-producing cells using Trizol according to the manufacturer's instructions.
as §2, with “The exosome-enriched pellet was re-suspended in PBS for further analyses.” left out

MDA-MB-231 cells = assay: as above; assay type: cell-based, human; details: FIG. 3B
Procedure: as §5, §6, §7
Exosomes were enriched by differential centrifugation as previously described (Thery, 2006, Curr Protoc Cell Biol, Chapter 3, Unit 3 22). […]

[4] = system: Ago2 knockout mouse embryonic fibroblasts; assay: Effect of Ago2 on exosomal enrichment of siRNA from pre-miR-451 structural mimic (qRT-PCR); assay type: cell-based; details: compared to wild-type cells or Ago2 knockout cells rescued with wild-type or catalytically dead Ago2, FIG. 10
Procedure: In these experiments, plasmids including siRNA sequences targeting GFP or TctR integrated in a pre-miR-451 structural mimic were transfected into cells, and the levels of GFP or TetR siRNA in exosomes vs cells (vs. let-7a and miR-16 in exosomes/cells) was measured by qRT-PCR two to three days later. Enrichment of miR-451 derived sequences in exosomes was normalized to 1 for wild-type exosomes.
Testing of the effect of Ago2 on enrichment of siRNA-containing constructs in exosomes using pre-miR-451 structural mimics as described herein was also performed.
In these experiments, plasmids including siRNA sequences targeting GFP or TetR integrated in a pre-miR-451 structural mimic were transfected into cells, and the levels of GFP or TetR siRNA in exosomes vs cells (vs. let-7a and miR-16 in exosomes/cells) was measured by qRT-PCR two to three days later. Enrichment of miR-451 derived sequences in exosomes was normalized to 1 for wild-type exosomes.

NAADP-AM
Effect on exosome number [1]: increased exosome number

CO/C1=C\C(C)=C\[C@@H](C)[C@@H](O)[C@@H](C)C/C(C)=C/C=C/[C@H](OC)[C@@H]([C@@H](C)[C@@H](O)[C@H](C)[C@@]2(O)C[C@@H](O)[C@H](C)[C@@H](C(C)C)O2)OC1=O [Bafilomycin A1]
Effect on exosome number [1]: increased exosome number

miR-451: endogenous miRNA strongly enriched in exosomes; generated from pre-miR-451 by Ago2 cleavage, Dicer-independent (AAACCGUUACCAUUACUGAGUUU; expressed or natural sequence; listed as Homo Sapiens)
Endogenous miR-451 in cells or exosomes (MEF; MEF cells, FIG. 3C): undetectable | Enrichment of miR-451 in exosomes/cell (vs. miR-16 and let-7a) (MEF; MEF, exosome-depleted or serum-free media): 68800 | Enrichment of miR-451 in exosomes/cell (vs. miR-16 and let-7a) (BV2): 1887 | Enrichment of miR-451 in exosomes/cell (vs. miR-16 and let-7a) (C8D1A): 40 | Enrichment of miR-451 in exosomes/cell (vs. miR-16 and let-7a) (C8D30): 22 | Enrichment of miR-451 in exosomes/cell (vs. miR-16 and let-7a) (C8S): 383 | Enrichment of miR-451 in exosomes/cell (vs. miR-16 and let-7a) (JAWSII): 23642 | Enrichment of miR-451 in exosomes/cell (vs. miR-16 and let-7a) (MN1): 44 | Enrichment of miR-451 in exosomes/cell (vs. miR-16 and let-7a) (Macrophage): 1280 | Enrichment of miR-451 in exosomes/cell (vs. miR-16 and let-7a) (N2A): 4119 | Enrichment of miR-451 in exosomes/cell (vs. miR-16 and let-7a) (NSC34): 73 | Ratio of endogenous miRNA in exosomes and exosome-producing cells (in words) (MDA-MB-231; MDA-MB-231, FIG. 3A): highly enriched in exosomes | Enrichment of miR-451 in exosomes/cell (vs. miR-16 and let-7a) (MDA-MB-231; MDA, exosome-depleted or serum-free media): 5600 | Enrichment of miR-451 in exosomes compared to its levels in cells, compared to other miRNA (MDA-MB-231; endogenous miRNA, MDA-MB-231, FIG. 3A): up to 308 fold | Enrichment of miR-451 in exosomes/cell (vs. miR-16 and let-7a) (MSC Line): 5293 | Enrichment of miR-451 in exosomes/cell (vs. miR-16 and let-7a) (ESC; ESC, exosome-depleted or serum-free media): 3 | Enrichment of miR-451 in exosomes (in words) (ESC; human embryonic stem cells, H9 line, FIG. 7): strongly enriched | Enrichment of miR-451 in exosomes/cell (vs. miR-16 and let-7a) (Primary MSC): 702 | Enrichment of miR-451 in exosomes in several studies [2]: 10-10000 fold

AUGAACUUCAGGGUCAGCUUGC (listed as RNA, chemistry not fully specified) [fully mature ss, fully mature form of miR-451 produced GFP siRNA, single-stranded 22 nt RNA]
Exosomal enrichment among constructs mimicking processing stages (normalized to let-7a and miR-16, exosomes vs. cells) [3]: most strongly exosome-enriched construct | Exosomal enrichment compared with standard dsRNA siRNA with 3′ overhangs [3]: higher than dsRNA

C/C=C/[C@H]1O[C@@](O)([C@@H](C)[C@H](O)[C@H](C)[C@H]2OC(=O)/C(OC)=C/C(C)=C/[C@@H](C)[C@@H](O)[C@@H](CC)[C@@H](O)[C@H](C)C/C(C)=C/C=C/[C@@H]2OC)C[C@@H](O)[C@@H]1C [concanamycin]
Effect on exosome number [1]: increased exosome number

B1: miR-199 in the pre-miR-451 structural mimic: pre-miR-451 structural mimic comprising the miR-199 targeting sequence, plasmid-expressed, SEQ ID NO: 8 (nucleic acid)
chain: CUUGGGAAUGGCAAGGACAGUAGUCUGCACAUUGGUUAAUGUGCAGACUACUGUCUCUUGCUAUACCCAGA
Effect of pre-miR-451 backbone on levels of inserted miRNA in cells (MEF cells): neglible effects

B2: miR-106 in the pre-miR-451 structural mimic: pre-miR-451 structural mimic comprising the miR-106 targeting sequence, plasmid-expressed, SEQ ID NO: 7 (nucleic acid)
chain: CUUGGGAAUGGCAAGGAAAAGUGCUUACAGUGCAGGUAUGCACUGUAAGCACUUUCUCUUGCUAUACCCAGA
Enrichment in exosomes of miRNA inserted in the pre-miR-451 backbone (in words) (MDA-MB-231 cells): comparable with miR-451 | Effect of pre-miR-451 backbone on levels of inserted miRNA in cells (MEF cells): neglible effects | Enrichment in exosomes of miRNA inserted in the pre-miR-451 backbone (in words) (MEF cells; MEF cells, FIG. 3D): highly enriched

B3: siRNA targeting TetR inserted in a pre-miR-451 structural mimic: pre-miR-451 structural mimic targeting TetR, SEQ ID NO: 20 (nucleic acid)
chain: CUUGGGAAUGGCAAGGUCUUGAUCUUCCAAUACGCAACCGUAUUGGAAGAUCAAGAUCUUGCUAUACCCAGA
modifications: expressed or natural sequence
Enrichment of siRNA in exosomes in Ago2 knockout cells [4]: still enriched in exosomes

Source: patent publication US10851372B2, “Exosome packaging of nucleic acids” (University of Ottawa, priority 2015, dated 2020)
